Results from patent US9695155B2, “Herbicidal substituted pyrimidinyloxy benzene compounds” (E. I. DU PONT DE NEMOURS AND COMPANY, priority 2013, dated 2017).

How the values were obtained:
sedge, umbrella = test: Test C flooded paddy test; assay type: in vivo, Cyperus difformis; settings: Flood, scale 0 to 100 (0 no effect, 100 complete control), 13 to 15 days
Outline: (§1)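 Pots were flooded to 3 cm above the soil surface at treatment, compound applied directly to the paddy water, and that depth held throughout. Plants were kept in a greenhouse for 13 to 15 days, then visually rated against untreated controls.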

ducksalad = test: Test C flooded paddy test; assay type: in vivo, Heteranthera limosa; settings: Flood, scale 0 to 100 (0 no effect, 100 complete control), 13 to 15 days
Outline: as §1

corn = test: Test E preemergence; assay type: in vivo, Zea mays; settings: for Corn plant response rating: scale 0 to 100 (0 no effect, 100 complete control)
From the text: (§2) Seeds of plant species selected from corn (Zea mays), soybean (Glycine max), velvetleaf (Abutilon theophrasti), lambsquarters (Chenopodium album), wild poinsettia (Euphorbia heterophylla), palmer pigweed (Amaranthus palmeri), waterhemp (common waterhemp, Amaranthus rudis), surinam grass (Brachiaria decumbens), large (Lg) crabgrass (Digitaria sanguinalis), Brazilian crabgrass (Digitaria horizontalis), fall panicum (Panicum dichotomiflorum), giant foxtail (Setaria faberii), green foxtail (Setaria viridis), goosegrass (Eleusine indica), johnsongrass (Sorghum halepense), ragweed (common ragweed, Ambrosia elatior), barnyardgrass (Echinochloa crus-galli), sandbur (southern sandbur, Cenchrus echinatus), arrowleaf sida (Sida rhombifolia), Italian ryegrass (Lolium multiflorum), dayflower (Virginia (VA) dayflower, Commelina virginica), field bindweed (Convolvulus arvensis), morningglory (Ipomoea coccinea), nightshade (eastern black nightshade, Solanum ptycanthum), kochia (Kochia scoparia), yellow nutsedge (Cyperus esculentus), cocklebur (common cocklebur, Xanthium strumarium), smartweed (ladysthumb smartweed, and hairy beggarticks (Bidens pilosa), were planted into a silt loam soil and treated preemergence with test chemicals formulated in a non-phytotoxic solvent mixture which included a surfactant.
(§3) At the same time, plants from these crop and weed species and also horseweed (Canada horseweed, Conyza canadensis), waterhemp_RES1, (ALS & Triazine resistant common waterhemp, Amaranthus rudis), and waterhemp_RES2, (ALS & HPPD resistant common waterhemp, Amaranthus rudis) were planted in pots containing Redi-Earth® planting medium (Scotts Company, 14111 Scottslawn Road, Marysville, Ohio 43041) comprising spaghnum peat moss, vermiculite, wetting agent and starter nutrients were treated with postemergence applications of test chemicals formulated in the same manner. Plants ranged in height from 2 to 18 cm for postemergence treatments (1- to 4-leaf stage). Treated plants and controls were maintained in a greenhouse for 14 to 21 days, after which time all species were compared to controls and visually evaluated. Plant response ratings, summarized in Table E, are based on a scale of 0 to 100 where 0 is no effect and 100 is complete control. A dash (-) response means no test result.

soybean = test: Test E preemergence; assay type: in vivo, Glycine max; settings: for Soybean plant response rating: scale 0 to 100 (0 no effect, 100 complete control)
Outline: (§4)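 Compound in a non-phytotoxic solvent mixture with surfactant was applied preemergence to seeds in silt loam soil, or postemergence to plants 2 to 18 cm tall grown in peat-based potting medium. Plants were kept in a greenhouse for 14 to 21 days, then rated visually against untreated controls on a 0 (no effect) to 100 (complete control) scale.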

velvetleaf = test: Test E preemergence; assay type: in vivo, Abutilon theophrasti; settings: for Velvetleaf plant response rating: scale 0 to 100 (0 no effect, 100 complete control)
From the text: as §2, §3

palmer pigweed = test: Test E preemergence; assay type: in vivo, Amaranthus palmeri; settings: for Pigweed, Palmer plant response rating: scale 0 to 100 (0 no effect, 100 complete control)
From the text: as §2, §3

surinam grass = test: Test E preemergence; assay type: in vivo, Brachiaria decumbens; settings: for Surinam Grass plant response rating: scale 0 to 100 (0 no effect, 100 complete control)
Outline: as §4

giant foxtail = test: Test E preemergence; assay type: in vivo, Setaria faberii; settings: for Foxtail, Giant plant response rating: scale 0 to 100 (0 no effect, 100 complete control)
Outline: as §4

green foxtail = test: Test E preemergence; assay type: in vivo, Setaria viridis; settings: for Foxtail, Green plant response rating: scale 0 to 100 (0 no effect, 100 complete control)
Outline: as §4

goosegrass = test: Test E preemergence; assay type: in vivo, Eleusine indica; settings: for Goosegrass plant response rating: scale 0 to 100 (0 no effect, 100 complete control)
Outline: as §4

arrowleaf sida = test: Test E preemergence; assay type: in vivo, Sida rhombifolia; settings: preemergence; for Arrowleaf Sida plant response rating: scale 0 to 100 (0 no effect, 100 complete control)
From the text: as §2, §3

field bindweed = test: Test E preemergence; assay type: in vivo, Convolvulus arvensis; settings: for Field Bindweed plant response rating: scale 0 to 100 (0 no effect, 100 complete control)
Outline: as §4

morningglory = test: Test E preemergence; assay type: in vivo, Ipomoea coccinea; settings: for Morningglory plant response rating: scale 0 to 100 (0 no effect, 100 complete control)
Outline: as §4

[1] = 125 g ai/ha, scale 0 to 100, 0 no effect, 100 complete control
[2] = 8 g ai/ha, scale 0 to 100, 0 is no effect, 100 is complete control

For `Fc1cnc(Oc2cccc(C(F)F)c2-n2cc(C(F)(F)F)cn2)nc1` [Compound 164], the “Plant response rating, Sedge, Umbrella” value (sedge, umbrella; 31 g ai/ha) was 0, the “Plant response rating, Sedge, Umbrella” value (sedge, umbrella; 62 g ai/ha) was 20 and the “Plant response rating, Sedge, Umbrella” value (sedge, umbrella; 125 g ai/ha) was 75. The “Plant response rating, Sedge, Umbrella” value (sedge, umbrella; 250 g ai/ha) was 95, the “Plant response rating, Ducksalad” value (ducksalad; 31 g ai/ha) was 0 and the “Plant response rating, Ducksalad” value (ducksalad; 62 g ai/ha) was 0. The “Plant response rating, Ducksalad” value (ducksalad; 125 g ai/ha) was 75, the “Plant response rating, Ducksalad” value (ducksalad; 250 g ai/ha) was 95 and the “Corn plant response rating” value (corn; 16 g ai/ha) was 0. The “Corn plant response rating” value (corn; 31 g ai/ha) was 0, the “Corn plant response rating” value (corn; 62 g ai/ha) was 0 and the “Plant response rating, Corn” value (corn; [1]) was 0. For the same compound, the “Soybean plant response rating” value (soybean; 31 g ai/ha) was 0, the “Soybean plant response rating” value (soybean; 62 g ai/ha) was 15 and the “Plant response rating, Soybean” value (soybean; [1]) was 70. For the same compound, the “Velvetleaf plant response rating” value (velvetleaf; 31 g ai/ha) was 50, the “Velvetleaf plant response rating” value (velvetleaf; 62 g ai/ha) was 100 and the “Plant response rating, Velvetleaf” value (velvetleaf; [1]) was 100. For the same compound, the “Pigweed, Palmer plant response rating” value (palmer pigweed; 31 g ai/ha) was 0, the “Pigweed, Palmer plant response rating” value (palmer pigweed; 62 g ai/ha) was 75 and the “Plant response rating, Pigweed, Palmer” value (palmer pigweed; [1]) was 80. The “Surinam Grass plant response rating” value (surinam grass; 31 g ai/ha) was 0, the “Surinam Grass plant response rating” value (surinam grass; 62 g ai/ha) was 20 and the “Plant response rating, Surinam Grass” value (surinam grass; [1]) was 20. For the same compound, the “Foxtail, Giant plant response rating” value (giant foxtail; 16 g ai/ha) was 0, the “Foxtail, Giant plant response rating” value (giant foxtail; 31 g ai/ha) was 20 and the “Foxtail, Giant plant response rating” value (giant foxtail; 62 g ai/ha) was 60. The “Plant response rating, Foxtail, Giant” value (giant foxtail; [1]) was 95, the “Foxtail, Green plant response rating” value (green foxtail; 16 g ai/ha) was 0 and the “Foxtail, Green plant response rating” value (green foxtail; 31 g ai/ha) was 25. For the same compound, the “Foxtail, Green plant response rating” value (green foxtail; 62 g ai/ha) was 60, the “Plant response rating, Foxtail, Green” value (green foxtail; [1]) was 100 and the “Goosegrass plant response rating” value (goosegrass; 31 g ai/ha) was 5. For the same compound, the “Goosegrass plant response rating” value (goosegrass; 62 g ai/ha) was 20, the “Plant response rating, Goosegrass” value (goosegrass; [1]) was 75 and the “Arrowleaf Sida plant response rating” value (arrowleaf sida; 16 g ai/ha) was 40. For the same compound, the “Arrowleaf Sida plant response rating” value (arrowleaf sida; 31 g ai/ha) was 100, the “Arrowleaf Sida plant response rating” value (arrowleaf sida; 62 g ai/ha) was 100 and the “Plant response rating, Arrowleaf Sida” value (arrowleaf sida; [1]) was 100. The “Field Bindweed plant response rating” value (field bindweed; 16 g ai/ha) was 0, the “Field Bindweed plant response rating” value (field bindweed; 31 g ai/ha) was 0 and the “Field Bindweed plant response rating” value (field bindweed; 62 g ai/ha) was 30. For the same compound, the “Plant response rating, Field Bindweed” value (field bindweed; [1]) was 50, the “Morningglory plant response rating” value (morningglory; 31 g ai/ha) was 65 and the “Morningglory plant response rating” value (morningglory; 62 g ai/ha) was 35. The “Plant response rating, Morningglory” value (morningglory; [1]) was 98.
In the case of `FC(F)c1cccc(Oc2ncc(Cl)cn2)c1-n1cc(C(F)(F)F)cn1` [Compound 170], the “Plant response rating, Corn” value (corn; [2]) was 0, the “Corn plant response rating” value (corn; 16 g ai/ha) was 0 and the “Corn plant response rating” value (corn; 31 g ai/ha) was 20. For the same compound, the “Corn plant response rating” value (corn; 62 g ai/ha) was 10, the “Plant response rating, Corn” value (corn; [1]) was 30 and the “Plant response rating, Soybean” value (soybean; [2]) was 0. For the same compound, the “Soybean plant response rating” value (soybean; 31 g ai/ha) was 0, the “Soybean plant response rating” value (soybean; 62 g ai/ha) was 30 and the “Plant response rating, Soybean” value (soybean; [1]) was 60. The “Plant response rating, Velvetleaf” value (velvetleaf; [2]) was 0, the “Velvetleaf plant response rating” value (velvetleaf; 31 g ai/ha) was 60 and the “Velvetleaf plant response rating” value (velvetleaf; 62 g ai/ha) was 65. The “Plant response rating, Velvetleaf” value (velvetleaf; [1]) was 100, the “Plant response rating, Pigweed, Palmer” value (palmer pigweed; [2]) was 0 and the “Pigweed, Palmer plant response rating” value (palmer pigweed; 31 g ai/ha) was 95. For the same compound, the “Pigweed, Palmer plant response rating” value (palmer pigweed; 62 g ai/ha) was 100, the “Plant response rating, Pigweed, Palmer” value (palmer pigweed; [1]) was 100 and the “Plant response rating, Surinam Grass” value (surinam grass; [2]) was 0. For the same compound, the “Surinam Grass plant response rating” value (surinam grass; 31 g ai/ha) was 0, the “Surinam Grass plant response rating” value (surinam grass; 62 g ai/ha) was 15 and the “Plant response rating, Surinam Grass” value (surinam grass; [1]) was 25. For the same compound, the “Plant response rating, Foxtail, Giant” value (giant foxtail; [2]) was 0, the “Foxtail, Giant plant response rating” value (giant foxtail; 16 g ai/ha) was 0 and the “Foxtail, Giant plant response rating” value (giant foxtail; 31 g ai/ha) was 25. For the same compound, the “Foxtail, Giant plant response rating” value (giant foxtail; 62 g ai/ha) was 100, the “Plant response rating, Foxtail, Giant” value (giant foxtail; [1]) was 100 and the “Plant response rating, Foxtail, Green” value (green foxtail; [2]) was 0. For the same compound, the “Foxtail, Green plant response rating” value (green foxtail; 16 g ai/ha) was 0, the “Foxtail, Green plant response rating” value (green foxtail; 31 g ai/ha) was 40 and the “Foxtail, Green plant response rating” value (green foxtail; 62 g ai/ha) was 90. For the same compound, the “Plant response rating, Foxtail, Green” value (green foxtail; [1]) was 100, the “Plant response rating, Goosegrass” value (goosegrass; [2]) was 0 and the “Goosegrass plant response rating” value (goosegrass; 31 g ai/ha) was 40. For the same compound, the “Goosegrass plant response rating” value (goosegrass; 62 g ai/ha) was 75, the “Plant response rating, Goosegrass” value (goosegrass; [1]) was 98 and the “Plant response rating, Arrowleaf Sida” value (arrowleaf sida; [2]) was 0. The “Arrowleaf Sida plant response rating” value (arrowleaf sida; 16 g ai/ha) was 0, the “Arrowleaf Sida plant response rating” value (arrowleaf sida; 31 g ai/ha) was 10 and the “Arrowleaf Sida plant response rating” value (arrowleaf sida; 62 g ai/ha) was 90. The “Plant response rating, Arrowleaf Sida” value (arrowleaf sida; [1]) was 100, the “Plant response rating, Field Bindweed” value (field bindweed; [2]) was 0 and the “Field Bindweed plant response rating” value (field bindweed; 16 g ai/ha) was 0. The “Field Bindweed plant response rating” value (field bindweed; 31 g ai/ha) was 0, the “Field Bindweed plant response rating” value (field bindweed; 62 g ai/ha) was 20 and the “Plant response rating, Field Bindweed” value (field bindweed; [1]) was 30. The “Plant response rating, Morningglory” value (morningglory; [2]) was 0, the “Morningglory plant response rating” value (morningglory; 31 g ai/ha) was 10 and the “Morningglory plant response rating” value (morningglory; 62 g ai/ha) was 35. For the same compound, the “Plant response rating, Morningglory” value (morningglory; [1]) was 95.
